Test results taken from ChEMBL document CHEMBL5338798, “An Analysis of Successful Hit-to-Clinical Candidate Pairs” (J Med Chem, 2023).
pIC50: −log10 of the molar value.

Target: T1, Tyrosine-protein phosphatase non-receptor type 11 (Homo sapiens, UniProt Q06124)
T1 sequence (Q06124 whole entry): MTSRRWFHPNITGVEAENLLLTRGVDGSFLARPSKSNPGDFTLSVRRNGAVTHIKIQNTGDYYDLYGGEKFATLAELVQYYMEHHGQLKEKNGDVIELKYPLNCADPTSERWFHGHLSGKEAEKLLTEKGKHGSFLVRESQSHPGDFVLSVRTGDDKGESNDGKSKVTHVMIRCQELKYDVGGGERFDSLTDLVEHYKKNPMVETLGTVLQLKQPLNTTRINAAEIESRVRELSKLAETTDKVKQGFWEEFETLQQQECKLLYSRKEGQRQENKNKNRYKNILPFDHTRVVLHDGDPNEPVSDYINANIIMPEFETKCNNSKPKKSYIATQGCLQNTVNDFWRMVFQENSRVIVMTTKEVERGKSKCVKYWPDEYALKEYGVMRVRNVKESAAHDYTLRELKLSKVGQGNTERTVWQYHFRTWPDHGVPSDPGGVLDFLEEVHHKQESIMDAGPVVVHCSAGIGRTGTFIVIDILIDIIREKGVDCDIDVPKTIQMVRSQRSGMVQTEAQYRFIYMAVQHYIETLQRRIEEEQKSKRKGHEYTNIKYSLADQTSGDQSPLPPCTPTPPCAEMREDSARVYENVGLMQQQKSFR
Assay: Inhibition of SHP2 (unknown origin)

SMILES: CC1(N)CCN(c2cnc(Sc3cccc(Cl)c3Cl)c(N)n2)CC1
- pIC50: 7.52
